The text below walks through data of patent publication US6555709B1, “Aromatic amides, their preparation process and their use as pesticides” (Hoechst Schering AgrEvo S.A., priority 1997, dated 2003).

What all share (type): in vivo
One assay concerns Heliothis Virescens. Put plainly: Study on Heliothis virescens, treated artificial medium. The note with it: starting from a dose of 300 ppm; neonate larva on treated artificial medium; checked after seven days; 25° C. The protocol: C) Study on Heliothis Virescens The product was dissolved at the desired concentration in an acetone-water mixture (50-50). 50 μl of solution is deposited on the surface of small well containing approximately 2 grams of plant based artificial medium. One neonate larva of Heliothis virescens was then introduced into each well, which was sealed with a sheet of cellophane. The tests were kept at a temperature of 25° C., with a photoperiod of twelve hours., The mortality of the larvae was checked after seven days.

The test system of the next assay is Spodoptera Littoralis. Nature of the assay: Study on Spodoptera littoralis, treated haricot leaves. The conditions noted are these: starting from a dose of 300 ppm; larvae on dipped haricot leaves; checked after seven days; 25° C. Here is the method: B) Study on Spodoptera Littoralis The product was dissolved at the desired concentration in an acetone-water mixture (50-50). Haricot leaves (Phaseolus vulgaris, var. […]) were immersed for five seconds in the solution, then left to dry in a Petri dish for one hour. Ten larvae of Spodoptera littoralis were then added to each dish. These are were at a temperature of 25° C., with a photoperiod of twelve hours. After seven days, the mortality of the larvae was checked and the foliar surface consumed is evaluated.

In a further assay the test system is Phaedon Cochleariae. Nature of the assay: Study on Phaedon cochleariae, treated Chinese cabbage foliar disks. The note with it: dose of 300 ppm; adults on dipped Chinese cabbage disks; checked after seven days; 25° C. Here is the method:
A) Study on Phaedon Cochleariae The product was dissolved at the desired concentration in an acetone-water mixture (50-50). Foliar disks of Chinese cabbage (Brassica pekinensis) were immersed for five seconds in the solution, then left to dry for one hour. Ten adults (a mixture of males and females) were added into a Petri dish containing a foliar disk. These were kept at a temperature of 25° C., with a photoperiod of twelve hours. After seven days, the mortality of the insects was checked and the foliar surface consumed is evaluated.

The subject of assay [1] is Diabrotica undecimpunctata. Put plainly: Study of the activity on Diabrotica, treated filter paper. The conditions noted are these: starting from a dose of 300 ppm; final stage larvae on treated filter paper; checked 24 hours after treatment. The protocol:
D) Study of the Activity on Diabrotica The test insects were final stage larvae of Diabrotica undecimpunctata. A 9 cm disc of filter paper, placed at the bottom of Petri dish, was treated using 1 cm^3 of an acetone solution. After drying 15 larvae per dose were deposited and the mortality check was carried out 24 hours after treatment.

As for `Cc1ccccc1NC(=O)c1ccc(CC2=Cc3ccc(Cl)c(Cl)c3CC2)cc1` [Product A], the “activity (mortality of the larvae)” value with Heliothis Virescens is on record as “very good activity”. In the assay with Spodoptera Littoralis, the “activity (mortality of the larvae and foliar surface consumed)” value was “very good activity”. The “activity (mortality of the insects and foliar surface consumed)” value with Phaedon Cochleariae is “very useful activity”. Moreover, the “activity (mortality)” value in assay [1] is given as “very good activity”.
As to `Cc1ccccc1NC(=O)c1ccc(Cc2ccc3cc(Cl)ccc3c2)cc1` [Product B], the “activity (mortality of the larvae)” value in the assay with Heliothis Virescens is reported as “very good activity”. Besides, the “activity (mortality of the larvae and foliar surface consumed)” value with Spodoptera Littoralis is reported as “very good activity”.
Consider `Cc1ccccc1NC(=O)c1ccc(Cc2ccc3c(Br)cccc3c2)cc1` [Product C], for which, in the assay with Heliothis Virescens, the “activity (mortality of the larvae)” value is “very good activity”. For the same compound, in the assay on Spodoptera Littoralis, the “activity (mortality of the larvae and foliar surface consumed)” value was “very good activity”.
Turning to `Cc1ccccc1NC(=O)c1ccc(Cc2ccc3cc(Br)ccc3c2)cc1` [Product D], the “activity (mortality of the larvae)” value with Heliothis Virescens is “very good activity”. For the same compound, in the assay with Spodoptera Littoralis, the “activity (mortality of the larvae and foliar surface consumed)” value is “very good activity”.
As for `Cc1ccccc1NC(=O)c1ccc(CC2=Cc3ccc(Br)cc3CC2)cc1` [Product E], the “activity (mortality of the larvae)” value with Heliothis Virescens is “very good activity”. In addition, the “activity (mortality of the larvae and foliar surface consumed)” value in the assay on Spodoptera Littoralis is listed as “very good activity”.
With `Cc1ccccc1NC(=O)c1ccc(CC2CCc3cc(I)ccc3C2)cc1` (stereo not shown) [Product F], the “activity (mortality of the larvae)” value in the assay on Heliothis Virescens is “very good activity”. Also, the “activity (mortality of the larvae and foliar surface consumed)” value in the assay with Spodoptera Littoralis was “very good activity”.
Take `Cc1ccccc1NC(=O)c1ccc(CC2=Cc3ccc(I)cc3CC2)cc1` [Product G]: the “activity (mortality of the larvae)” value with Heliothis Virescens was “very good activity”. The “activity (mortality of the larvae and foliar surface consumed)” value in the assay with Spodoptera Littoralis is listed as “very good activity”.
For `Cc1ccccc1NC(=O)c1ccc(CC2=Cc3cc(Br)c(Br)cc3CC2)cc1` [Product H], in the assay with Heliothis Virescens, the “activity (mortality of the larvae)” value is on record as “very good activity”. Moreover, the “activity (mortality of the larvae and foliar surface consumed)” value with Spodoptera Littoralis is on record as “very good activity”.
Turning to `Cc1ccccc1NC(=O)c1ccc(Cc2ccc3c(c2)CC(Br)C(Br)C3)cc1` (stereo not shown) [Product I], in the assay on Heliothis Virescens, the “activity (mortality of the larvae)” value is given as “very good activity”. Besides, the “activity (mortality of the larvae and foliar surface consumed)” value with Spodoptera Littoralis was “very good activity”.
For the compound `Cc1ccccc1NC(=O)c1ccc(CC2CCc3c(ccc(Cl)c3Cl)C2F)cc1` (stereo not shown) [Product J], the “activity (mortality of the larvae)” value with Heliothis Virescens was “very good activity”. For the same compound, the “activity (mortality of the larvae and foliar surface consumed)” value in the assay on Spodoptera Littoralis is on record as “very good activity”.
With `O=C(Nc1ccccc1)c1ccc(Cc2ccc3cc(Cl)c(Cl)cc3c2)cc1` [Product K], the “activity (mortality of the larvae)” value in the assay with Heliothis Virescens was “very good activity”. Moreover, in the assay with Spodoptera Littoralis, the “activity (mortality of the larvae and foliar surface consumed)” value is recorded as “very good activity”.
For the compound `CC(C)C(C)NC(=O)c1ccc(Cc2ccc3cc(Cl)ccc3c2)cc1` (stereo not shown) [Product L], the “activity (mortality of the larvae)” value in the assay on Heliothis Virescens is reported as “very good activity”. For the same compound, the “activity (mortality)” value in assay [1] is listed as “very good activity”.
In the case of `C=C(NC(C)C(C)C)c1ccc(Cc2ccc3cc(Cl)c(Cl)cc3c2)cc1` (stereo not shown) [Product M], the “activity (mortality of the larvae)” value in the assay on Heliothis Virescens is listed as “very good activity”. Moreover, in assay [1], the “activity (mortality)” value is listed as “very good activity”.
